The compounds below were run against Sodium channel protein type 10 subunit alpha (Homo sapiens, UniProt Q9Y5Y9) (assay: Inhibition of human Nav1.8 expressed in HEK cells applied electrical stimulus 10 Hz for 10 seconds measuring relaxation to the resting state followed by post stimulation by E-VIPR Assay).
Sodium channel protein type 10 subunit alpha, sequence (Q9Y5Y9 whole entry): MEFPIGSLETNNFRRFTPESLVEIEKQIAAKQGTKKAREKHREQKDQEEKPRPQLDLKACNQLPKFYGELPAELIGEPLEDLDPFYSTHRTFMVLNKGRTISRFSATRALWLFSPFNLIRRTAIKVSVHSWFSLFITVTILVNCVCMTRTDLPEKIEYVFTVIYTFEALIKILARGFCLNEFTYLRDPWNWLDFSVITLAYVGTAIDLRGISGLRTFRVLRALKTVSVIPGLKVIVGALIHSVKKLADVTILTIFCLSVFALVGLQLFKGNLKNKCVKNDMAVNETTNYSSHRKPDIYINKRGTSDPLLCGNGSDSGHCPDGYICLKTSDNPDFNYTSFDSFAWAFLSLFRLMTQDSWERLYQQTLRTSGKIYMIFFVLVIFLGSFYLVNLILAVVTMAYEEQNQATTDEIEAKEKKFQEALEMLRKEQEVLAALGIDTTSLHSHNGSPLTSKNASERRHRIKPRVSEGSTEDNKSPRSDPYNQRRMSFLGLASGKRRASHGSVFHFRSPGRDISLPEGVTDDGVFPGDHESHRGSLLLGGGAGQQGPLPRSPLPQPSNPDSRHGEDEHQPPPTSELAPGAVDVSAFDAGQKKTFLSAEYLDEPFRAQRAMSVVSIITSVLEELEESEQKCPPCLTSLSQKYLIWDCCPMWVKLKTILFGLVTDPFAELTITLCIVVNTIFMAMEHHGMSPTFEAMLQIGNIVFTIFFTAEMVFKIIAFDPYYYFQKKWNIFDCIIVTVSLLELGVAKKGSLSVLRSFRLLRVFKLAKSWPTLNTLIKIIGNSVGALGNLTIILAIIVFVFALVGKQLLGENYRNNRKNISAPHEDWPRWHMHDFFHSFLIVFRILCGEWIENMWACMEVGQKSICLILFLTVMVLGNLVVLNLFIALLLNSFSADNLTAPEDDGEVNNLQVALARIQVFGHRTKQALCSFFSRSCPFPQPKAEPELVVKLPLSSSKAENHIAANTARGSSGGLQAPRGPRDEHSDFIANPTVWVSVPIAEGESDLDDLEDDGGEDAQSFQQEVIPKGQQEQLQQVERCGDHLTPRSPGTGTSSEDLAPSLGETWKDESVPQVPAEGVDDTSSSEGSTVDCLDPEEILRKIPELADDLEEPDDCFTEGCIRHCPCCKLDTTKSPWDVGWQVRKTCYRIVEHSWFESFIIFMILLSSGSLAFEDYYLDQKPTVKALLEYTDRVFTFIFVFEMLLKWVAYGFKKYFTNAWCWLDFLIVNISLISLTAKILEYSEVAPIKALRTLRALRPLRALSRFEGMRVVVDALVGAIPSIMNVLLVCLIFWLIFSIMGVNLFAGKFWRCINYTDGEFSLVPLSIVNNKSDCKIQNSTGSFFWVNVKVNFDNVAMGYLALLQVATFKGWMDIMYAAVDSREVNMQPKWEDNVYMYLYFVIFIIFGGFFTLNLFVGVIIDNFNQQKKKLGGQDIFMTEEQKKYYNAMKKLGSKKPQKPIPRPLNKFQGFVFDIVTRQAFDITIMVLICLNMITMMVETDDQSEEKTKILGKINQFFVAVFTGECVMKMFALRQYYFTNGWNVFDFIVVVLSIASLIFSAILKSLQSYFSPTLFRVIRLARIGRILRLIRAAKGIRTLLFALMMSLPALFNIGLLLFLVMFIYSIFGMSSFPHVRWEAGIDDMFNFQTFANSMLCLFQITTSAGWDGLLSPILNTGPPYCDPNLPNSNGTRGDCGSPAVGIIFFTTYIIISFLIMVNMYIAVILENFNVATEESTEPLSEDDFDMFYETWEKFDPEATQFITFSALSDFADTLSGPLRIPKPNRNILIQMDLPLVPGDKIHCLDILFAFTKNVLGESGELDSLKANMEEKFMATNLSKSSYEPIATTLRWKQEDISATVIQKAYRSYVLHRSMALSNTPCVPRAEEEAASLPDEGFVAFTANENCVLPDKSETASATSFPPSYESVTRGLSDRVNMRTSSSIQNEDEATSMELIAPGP
Format: cell-based
In the case of `COc1c(Cl)cc(Oc2ccc(OC(F)(F)F)c(F)c2OC)c(C(=O)Nc2ccnc(C(N)=O)c2)c1F`, the IC50 is reported as 1.3 nM. For `COc1c(Oc2cc(Cl)c(C)c(F)c2C(=O)Nc2ccnc(C(N)=O)c2)ccc(OC(F)(F)F)c1F`, the IC50 was 1.4 nM. Compound `COc1c(Oc2cc(C(F)(F)F)c(C)c(F)c2C(=O)Nc2ccnc(C(N)=O)c2)ccc(OC(F)(F)F)c1F` has an IC50 of 0.8 nM. With `COc1cc(Oc2ccc(OC(F)(F)F)c(F)c2OC)c(C(=O)Nc2ccnc(C(N)=O)c2)c(F)c1Cl` the IC50 was 1.7 nM. With `COc1cc(OC(F)(F)F)ccc1Oc1ccc(C(F)(F)F)c(C)c1C(=O)Nc1ccnc(C(N)=O)c1` the IC50 was 4 nM. `COc1cc(OC(F)(F)F)ccc1Oc1ccc(C(F)(F)F)c(Br)c1C(=O)Nc1ccnc(C(N)=O)c1` showed an IC50 of 2 nM. In the case of `COc1c(Oc2ccc(Cl)c(F)c2C(=O)Nc2ccnc(C(N)=O)c2)ccc(OC(F)(F)F)c1F`, the IC50 is reported as 2.3 nM. In the case of `COc1c(Oc2ccc(C(F)(F)F)c(C)c2C(=O)Nc2ccnc(C(N)=O)c2)ccc(OC(F)(F)F)c1F`, the IC50 is reported as 3 nM. With `COc1cc(OC(F)(F)F)ccc1Oc1cc(OC)c(C(F)(F)F)c(F)c1C(=O)Nc1ccnc(C(N)=O)c1` the IC50 was 1.8 nM. Work on `COc1cc(OC(F)(F)F)ccc1Oc1ccc(C(F)(F)F)c(Cl)c1C(=O)Nc1ccnc(C(N)=O)c1` yielded an IC50 of 2 nM. Work on `COc1c(Oc2cc(C(F)(F)F)c(OC)c(F)c2C(=O)Nc2ccnc(C(N)=O)c2)ccc(OC(F)(F)F)c1F` yielded an IC50 of 1.6 nM. Compound `COc1cc(Oc2ccc(OC(F)(F)F)c(F)c2OC)c(C(=O)Nc2ccnc(C(N)=O)c2)c(F)c1C(F)(F)F` has an IC50 of 0.4 nM.
